# According to the supplement of paper PMC4862054:
# “And” between values parts separate entries of the source, which are not always exact repeats. Equal values may be shown once.
# How the values were obtained:
# MDA-MB-453 [1] = conditions: 72 h
# Outline: (§1)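 Breast cancer cell lines in 20 µl suspension were seeded onto 384-well plates that already held compound dissolved in 5 µl medium and were incubated for 72 h. Viability was measured by adding 2.5 µl CellTiter-Blue for 2 h at 37 °C and reading fluorescence at 560/590 nm. Each plate was normalised to vehicle and a positive kill control and checked by Z'-factor. EC50 was taken from a fitted percent-inhibition dose-response curve, censored at the highest concentration, and rows with a drug sensitivity score of zero were removed.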
# MCF-10A [2] = assay: normalised response (% of control), CellTiter-Glo; higher = more viable cells (100 = DMSO, 0 = benzethonium chloride kill control); conditions: incubation time: 72 h
# Outline: (§2)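 Each entry is the normalised signal at a single concentration within a series. The series comprised 5 concentrations in 10-fold steps over a compound-specific 10,000-fold range, placed in 384-well plates into which breast cancer cell lines were seeded as 20 µl suspension and incubated 72 h. CellTox Green (485/520 nm) fluorescence and then CellTiter-Glo luminescence were read, with signals normalised per plate to 0.1 % DMSO (100) and a positive kill control (0).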
# SK-BR-3 [3] = assay: as above; conditions: incubation time: 72 h
# Outline: as §2
# HDQ-P1 [4] = assay: as above; conditions: incubation time: 72 h
# Outline: as §2
# BT-549 [5] = assay: as above; conditions: incubation time: 72 h
# Outline: as §2
# CAL-51 [6] = assay: normalised viability (% of control), CellTiter-Blue; higher = more viable cells (about 100 = DMSO control); conditions: incubation time: 72 h
# Description: (§3)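 DSRT, CellTiter-Blue viability, 72 h incubation. Signal is normalised to DMSO and benzethonium chloride controls. Value is the normalised response at dose 7.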
# MDA-MB-453 [7] = assay: as above; conditions: incubation time: 72 h
# Description: as §3
# CAL-148 [8] = assay: as above; conditions: incubation time: 72 h
# Description: as §3
# HDQ-P1 [9] = assay: as above; conditions: incubation time: 72 h
# Description: as §3
# DU-4475 [10] = assay: as above; conditions: incubation time: 72 h
# Description: as §3
# CAL-85-1 = assay: as above; conditions: incubation time: 72 h
# Description: as §3
# CAL-51 [11] = assay: normalised response (% of control), CellTiter-Glo; higher = more viable cells (100 = DMSO, 0 = benzethonium chloride kill control); conditions: incubation time: 72 h
# Outline: as §2
# MCF-10A [12] = assay: as above; conditions: incubation time: 72 h; remark: listed apart in the source
# Outline: as §2
# Hs578T = assay: as above; conditions: incubation time: 72 h
# Outline: as §2
# HCC1599 = assay: as above; conditions: incubation time: 72 h
# Outline: as §2
# CAL-148 [13] = assay: as above; conditions: incubation time: 72 h
# Outline: as §2
# SK-BR-3 [14] = assay: as above; conditions: incubation time: 72 h; remark: listed apart in the source
# Outline: as §2
# MDA-MB-468 = assay: as above; conditions: incubation time: 72 h
# Outline: as §2
# MDA-MB-436 = assay: as above; conditions: incubation time: 72 h
# Outline: as §2
# CAL-120 = assay: as above; conditions: incubation time: 72 h
# Outline: as §2
# HDQ-P1 [15] = assay: as above; conditions: incubation time: 72 h; remark: listed apart in the source
# Outline: as §2
# DU-4475 [16] = assay: as above; conditions: incubation time: 72 h
# Outline: as §2
# MDA-MB-231 = assay: as above; conditions: incubation time: 72 h
# Outline: as §2
# MFM-223 = assay: as above; conditions: incubation time: 72 h
# Outline: as §2
# BT-474 = assay: as above; conditions: incubation time: 72 h
# Outline: as §2
# BT-549 [17] = assay: as above; conditions: incubation time: 72 h; remark: listed apart in the source
# Outline: as §2
# DU-4475 [18] = conditions: 72 h
# Outline: as §1
# CAL-51 [19] = conditions: 72 h
# Outline: as §1
Structure (SMILES),"EC50, CellTiter-Blue viability (MDA-MB-453 [1]) [µM]",normalised response (MCF-10A [2]) [%],normalised response (SK-BR-3 [3]) [%],normalised response (HDQ-P1 [4]) [%],normalised response (BT-549 [5]) [%],normalised viability (CAL-51 [6]),normalised viability (MDA-MB-453 [7]),normalised viability (CAL-148 [8]),normalised viability (HDQ-P1 [9]),normalised viability (DU-4475 [10]),normalised viability (CAL-85-1),normalised response (CAL-51 [11]) [%],normalised response (MCF-10A [12]) [%],normalised response (Hs578T) [%],normalised response (HCC1599) [%],normalised response (CAL-148 [13]) [%],normalised response (SK-BR-3 [14]) [%],normalised response (MDA-MB-468) [%],normalised response (MDA-MB-436) [%],normalised response (CAL-120) [%],normalised response (HDQ-P1 [15]) [%],normalised response (DU-4475 [16]) [%],normalised response (MDA-MB-231) [%],normalised response (MFM-223) [%],normalised response (BT-474) [%],normalised response (BT-549 [17]) [%],"EC50, CellTiter-Blue viability (DU-4475 [18]) [µM]","EC50, CellTiter-Blue viability (CAL-51 [19]) [µM]"
Cc1ccc(NC(=O)c2ccc(CN3CCN(C)CC3)cc2)cc1Nc1nc(-c2cccnc2)cs1 [Masitinib],4.58,,,,,,,,,,,,,,,,,,,,,,,,,,,
COc1cc2/c(=N/c3ccc(Br)cc3F)nc[nH]c2cc1OCC1CCN(C)CC1 [Vandetanib] (1000 nM),,27.1,74.3,56.3,95,82.4%,87.9%,89.2%,48.7%,105%,71%,,,,,,,,,,,,,,,,,
CN(C)c1nc(N(C)C)nc(N(C)C)n1 [Altretamine] (1000 nM),,,,,,103%,91.6%,105%,101%,113%,96.9%,108,103,110,118,95.2,107,107,99.3,99.5,105,98.9,100,103,101,103,,
Cc1ccc(NC(=O)c2ccc(CN3CCN(C)CC3)cc2)cc1Nc1nc(-c2cccnc2)cs1 [Masitinib] (1000 nM),,,,,,104%,89.6%,87.1%,105%,120%,94.3%,80.5,105,102,106,103,105,89.9,105,95.5,98.8,103,105,103,104,92.9,,
N#Cc1ccc(COC[C@H]2O[C@@H](n3c(NCc4ccc(Cl)c(Cl)c4)nc4c(N)ncnc43)[C@H](O)[C@@H]2O)cc1,,,,,,,,,,,,,,,,,,,,,,,,,,,2.32,
O=C(Nc1cccnc1)N1CCC(Cc2cccc(Oc3ccc(C(F)(F)F)cn3)c2)CC1 [PF-3845],2.64,,,,,,,,,,,,,,,,,,,,,,,,,,,5.96
C=C1C[C@@H]2[C@H](CC[C@]3(C)C(=O)CC[C@@H]23)[C@@]2(C)C=CC(=O)C=C12 [Exemestane],0.916,,,,,,,,,,,,,,,,,,,,,,,,,,,
c1ccc2c(CCNc3ccc(Nc4ccncc4)cc3)c[nH]c2c1 [Serdemetan],2.98,,,,,,,,,,,,,,,,,,,,,,,,,,4.5,4.94
O=C(Nc1ccncc1)C(=O)c1cn(Cc2ccc(Cl)cc2)c2ccccc12 [Indibulin] (1000 nM),,,,,,54.2%,38.5%,118%,61.3%,81.8%,53.8%,25.5,89.8,57.8,63.1,93.2,33.2,37.7,42.2,66.9,80.1,91.8,78,60,70.8,42.8,,
CCc1c2c(nc3ccc(OC(=O)N4CCC(N5CCCCC5)CC4)cc13)-c1cc3c(c(=O)n1C2)COC(=O)[C@]3(O)CC [Irinotecan] (1000 nM),,,,,,80.6% and 99.8%,76% and 99.8%,61.5% and 70.9%,98.8% and 93.5%,73.1% and 78.7%,88.7% and 94.5%,96.6,88.3,101,109,66.3,78.8,82,64.5,83.7,95.5,82.1,98.1,104,91,78.2,,
CN(C)CCOc1ccc(/C(=C(/CCCl)c2ccccc2)c2ccccc2)cc1 [Toremifene],7.24,,,,,,,,,,,,,,,,,,,,,,,,,,,
CO[C@H]1C[C@@H]2CC[C@@H](C)[C@@](O)(O2)C(=O)C(=O)N2CCCC[C@H]2C(=O)O[C@H]([C@H](C)C[C@@H]2CC[C@@H](OP(C)(C)=O)[C@H](OC)C2)CC(=O)[C@H](C)/C=C(\C)[C@@H](O)[C@@H](OC)C(=O)[C@H](C)C[C@H](C)/C=C/C=C/C=C/1C [Ridaforolimus] (100 nM),,85.1,56.9,79,54.8,39.4%,24.1%,37%,76.6%,53.7%,52.5%,,,,,,,,,,,,,,,,,
Oc1ccc2c(c1)CC[C@H](c1ccccc1)[C@@H]2c1ccc(OCCN2CCCC2)cc1 [Lasofoxifene] (100 nM),,,,,,99.7%,80.7%,107%,109%,106%,87.2%,103,114,106,107,105,113,107,107,107,99.4,95.7,107,105,104,95.8,,
